Measured values from patent US20090005419A1, “Organic Compounds” (priority 2005, published 2009).

target: T1, HuRfl (Homo sapiens, UniProt Q15717); test: Competition experiments with ARE RNA binding to HuRfl (anisotropy, 2D-FIDA); details: dissociation constants from competition experiments with ARE RNA binding to HuRfl; 1:1:1 stoichiometric, competitive inhibition assumed
T1 construct: HuRfl full length HuR protein
Procedure: (1) A cellular reporter gene assay with firefly luciferase under control of the IL-2 or TNF-α AU-rich element. This assay is designed to identify cellularly active, non-toxic inhibitors of ARE-mediated mRNA stabilization. The confirmed hits are tested in a control assay with the luciferase CDS under the IL-2 or TNF-α promoter to exclude compounds acting at the transcriptional level. By definition, the identified hit compounds interfere with posttranscriptional stabilization of short-lived ARE mRNAs at some level along the ARE pathway. (2) In vitro screen for HuR-ARE inhibitors using confocal fluctuation spectroscopy. This assay uses 2D-FIDA to monitor binding of HuR12, a shortened variant of HuR to a TMR labeled ARE RNA in solution. Compounds identified in this screen are supposed to interfere with HuR-ARE recognition by binding either to the ARE or to HuR12. (3) CONA with HuR. Combinatorial on-bead libraries are screened for high affinity HuR binders with CONA. After picking of hit beads and cleavage of on-bead binders from the solid support, the compound structures are decoded by PHPLC-MS. Binding of resynthesized hit compounds to HuR is tested in solution. As the primary result, the identified compounds represent high affinity HuR binders. Functionally, these may be inhibitors of any HuR activity including ARE recognition, nucleocytoplasmic shuttling and protection of the mRNA from ARE-dependent degradation.
The RNA fraction bound y is calculated from the anisotropy data based on y=(r−rmin)/((r−rmin)+Q(rmax−r)) with r≡ measured anisotropy, rmin, rmax≡ anisotropy of the free and HuR bound RNA, respectively, Q ≡ quenching. Dissociation constants Kd are determined by nonlinear curve fitting with KMath in Mathematica 5.0.0, assuming a 1:1:1 stoichiometric, competitive inhibition.

T1 sequence (Q15717 whole entry): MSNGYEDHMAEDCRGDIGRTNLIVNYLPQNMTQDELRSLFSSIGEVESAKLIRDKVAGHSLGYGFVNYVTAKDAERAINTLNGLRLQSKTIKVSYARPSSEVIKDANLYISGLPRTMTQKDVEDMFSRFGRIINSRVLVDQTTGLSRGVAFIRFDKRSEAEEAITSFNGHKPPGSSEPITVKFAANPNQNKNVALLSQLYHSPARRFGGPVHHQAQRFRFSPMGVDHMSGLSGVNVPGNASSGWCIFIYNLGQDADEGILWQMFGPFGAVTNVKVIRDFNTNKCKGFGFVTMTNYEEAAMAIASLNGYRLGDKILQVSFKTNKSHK

| Structure (SMILES) | Kd [µM] |
| --- | --- |
| COc1cccc(CNC(=O)c2ccc(C(=O)NC(Cc3ccc(CN)cc3)C(=O)NCc3ccc(C)cc3)cc2)c1 (stereo not shown) [Example 3, N-[2-(4-Aminomethyl-phenyl)-1-(4-methyl-benzylcarbamoyl)-ethyl]-N′-(3-methoxy-benzyl)-terephthalamide] | 0.092 ± 0.022 |
| COCCn1c(C(=O)CN2CCC(C(N)=O)CC2)cc(C(=O)NC(CCO)C(=O)NCCCN2CCCC2=O)c1C (stereo not shown) [Example 4, 1-{2-[4-{3-Hydroxy-1-[3-(2-oxo-pyrrolidin-1-yl)-propylcarbamoyl]-propylcarbamoyl}-1-(2-methoxy-ethyl)-5-methyl-1H-pyrrol-2-yl]-2-oxo-ethyl}-piperidine-4-carboxylic acid amide] | 0.103 ± 0.02 |
| COc1cccc(CCn2c(C(=O)CN3CCCCC3)cc(C(=O)NC(CC(=O)O)C(=O)NCCCN3CCCC3=O)c2C)c1 (stereo not shown) [Example 5, 3-{[1-[2-(3-Methoxy-phenyl)-ethyl]-2-methyl-5-(2-piperidin-1-yl-acetyl)-1H-pyrrole-3-carbonyl]-amino}-N-[3-(2-oxo-pyrrolidin-1-yl)-propyl]-succinamic acid] | 0.104 ± 0.014 |
| Cc1c(C(=O)NC(Cc2c[nH]c3ccccc23)C(=O)NCCCN2CCCC2=O)cc(C(=O)CN2CCCCC2)n1Cc1ccccc1 (stereo not shown) [Example 6, 1-Benzyl-2-methyl-5-(2-piperidin-1-yl-acetyl)-1H-pyrrole-3-carboxylic acid {2-(1H-indol-3-yl)-1-[3-(2-oxo-pyrrolidin-1-yl)-propylcarbamoyl]-ethyl}-amide] | 0.143 ± 0.027 |
